Test results published in patent US9029405B2, “5-(biphenyl-4-yl)-3-phenyl-1,2,4-oxadiazolyl derivatives as ligands on the sphingosine 1-phosphate(SIP)receptors” (Merck Serono S.A., priority 2010, dated 2015).
Counter-ions that a name gives are not always drawn. Like-named read-outs stand apart in the source and are kept apart here.

Key:
S1P1 [1] = molecular target: T1, S1P1 (Homo sapiens, UniProt P21453); assay: Receptor binding assay, [33P]sphingosine 1-phosphate competition, membranes of CHO cells expressing S1P1
Experimental: (§1) Membranes were prepared from CHO cells expressing S1P1 or S1P3 for use in ligand binding studies. Cells were suspended in 50 mM TRIS, pH 7.4, 2 mM EDTA, 250 mM Sucrose (buffer A) and 1× Complete protease inhibitor cocktail (Roche), and disrupted at 4° C. by N2 decompression using a cell disruption bomb (Parr Instrument). Following centrifugation at 1000 RPM for 10 min at 4° C., the supernatant was diluted (2×) in buffer A and centrifuged again at 19000 RPM for 75 min at 4° C. The pellet was then suspended in 10 mM HEPES, pH 7.4, 1 mM EDTA, 250 mM Sucrose (Buffer B), and 1× Complete EDTA-free protease inhibitor cocktail and homogenized using a potter. Membranes were flash frozen in liquid N2 and stored at −80° C.
(§2) [33P]sphingosine 1-phosphate (3000 Ci/mmol; American Radiolabeled Chemicals, Inc.) was added to test compounds in 20% DMSO by competition. Membranes and WGA SPA beads (GE Healthcare) were added to give a final volume of 100 μl in 96-well plates or 50 μl in 384-well plates with assay concentrations of 30 pM or 15 pM [33P]sphingosine 1-phosphate (respectively for S1P1 or S1P3), 50 mM HEPES, pH 7.5, 5 mM MgCl2, 100 mM NaCl, 0.4% fatty acid-free BSA, 1-5 μg/well of proteins in 96-well plates vs 0.6-1 μg/well of proteins in 384-well plates and 100 μg/well of WGA SPA beads in 96-well plates vs 75 μg/well of WGA SPA beads in 384-well plates. Binding was performed for 60 min at RT on a shaker and bound radioactivity was measured on a PerkinElmer 1450 MicroBeta counter. Triplicate samples were averaged and normalized as percentage of inhibition relative to total binding (only DMSO in well) and non specific binding (1000-fold excess of unlabeled S1P). Binding data were analyzed using the GraphPad Prism program or Genedata software.
(§3) The “potency” or the “activity” of the compounds is determined by the Ki values as evaluated in one of the above described binding assay, 96 or 384 well plates.
Target sequence in this assay (P21453 whole entry, species assumed): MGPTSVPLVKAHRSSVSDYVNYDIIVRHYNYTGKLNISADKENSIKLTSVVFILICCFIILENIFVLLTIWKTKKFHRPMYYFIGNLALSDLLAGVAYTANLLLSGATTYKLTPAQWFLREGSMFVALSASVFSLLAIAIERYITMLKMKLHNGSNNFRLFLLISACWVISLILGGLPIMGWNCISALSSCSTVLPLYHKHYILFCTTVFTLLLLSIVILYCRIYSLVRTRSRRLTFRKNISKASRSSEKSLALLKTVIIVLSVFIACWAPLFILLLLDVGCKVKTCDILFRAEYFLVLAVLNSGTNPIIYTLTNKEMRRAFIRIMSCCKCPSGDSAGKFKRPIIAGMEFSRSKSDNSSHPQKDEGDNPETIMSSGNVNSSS

S1P3 = S1P3 (Homo sapiens, UniProt Q99500); assay: Receptor binding assay, [33P]sphingosine 1-phosphate competition, membranes of CHO cells expressing S1P3
S1P3, sequence (Q99500 whole entry, species assumed): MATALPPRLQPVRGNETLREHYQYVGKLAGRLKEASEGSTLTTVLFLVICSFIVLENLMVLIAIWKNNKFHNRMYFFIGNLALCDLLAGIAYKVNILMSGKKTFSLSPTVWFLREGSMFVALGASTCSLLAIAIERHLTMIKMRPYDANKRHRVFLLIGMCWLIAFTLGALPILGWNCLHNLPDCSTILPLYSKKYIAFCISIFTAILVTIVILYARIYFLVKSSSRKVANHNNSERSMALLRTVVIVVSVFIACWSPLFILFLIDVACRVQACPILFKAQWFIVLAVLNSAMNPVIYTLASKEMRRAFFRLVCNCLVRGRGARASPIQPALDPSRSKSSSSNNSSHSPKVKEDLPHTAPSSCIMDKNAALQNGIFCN
Experimental: as §1, §2, §3

S1P1 [2] = molecular target: T1, S1P1; assay: S1P1 internalization assay in S1P1-U2OS cells (cell imaging); format: cell-based; design: host or cells: U2OS (human bone osteosarcoma epithelial cells); settings: U2OS cells expressing S1P1-EGFP, 384-well format
Experimental: Cellular Functional Assays: Internalization of Sphinqosine-1-phosphate Receptor 1 (S1P1) in a Human Cell Line (U2OS) in a 384-Well Format Using a Cell Imaging Analysis.
The S1P1 internalization assay was performed in 384 well plates (Corning 384 black with clear bottom 3712) using S1P1-U2OS cells from BioImage (C039A), a human epithelial cell line (Human Bone Osteosarcoma Epithelial Cells). These cells expressed the human S1P1 Receptor fused to the green fluorescent protein (EGFP). A standard CMV promoter (cytomegalovirus promoter) controls the expression of S1P1-EGFP and continuous expression was maintained by addition of geneticin to the culture medium.
S1P1 Receptor desensitization induced the internalization of the membrane-localized S1P-EGFP fusion protein to endosomes, which can be monitored by cell imaging analysis.
The cells are plated in low serum medium (Dulbecco's Modified Eagle Medium (DMEM) with Glutamax-1 and high glucose, 1% Penicillin/Streptomycin, 1% Fetal Calf Serum (FCS), 0.5 mg/ml Geneticin) overnight.
The next day, S1P1-U2OS cells are incubated in 20 μl serum free medium (DMEM with Glutamax-1 and high glucose, 0.1% of fatty-acid free Bovin Serum Albumin (BSA), 10 mM, N′-2-Hydroxyethylpiperazine-N′-2 ethanesulphonic acid (HEPES) 1M) for 2 hours at 37° C./5% CO2. The cells are then treated with 4 μl compounds/agonists (6×/3% DMSO) for a total volume of 24 μl, and plates are incubated for 1 hour at 37° C./5% CO2.
S1P1-U2OS cells are fixed with 25 μl Paraformaldehyde 8% and stained with Hoechst 33345 dye (1:1000) for 20 minutes.
They were then washed 3 times with Phosphate Buffered Saline (PBS) and plates are sealed. The internalization of the receptor S1P1-EGFP is measured on Cellomics by calculating the “spot count per object” (“object” corresponds to nuclear and “spot” corresponds to S1P1-EGFP receptor). Internalization data were observed thanks to vHCS View and analyzed using Genedata® software.
Target sequence in this assay (P21453 whole entry): as the sequence (P21453 whole entry, species assumed) above

[3] = 384 well plate, read-out: S1P1 Binding Ki [M] (384 well plate)
[4] = 384 well plate, read-out: S1P3 Binding Ki [M] (384 well plate)
[5] = 96 well plate, read-out: S1P1 Binding Ki [M] (96 well plate)
[6] = 96 well plate, read-out: S1P3 Binding Ki [M] (96 well plate)

Row | Structure (SMILES) | Ki (S1P1 [1]; [3]) | Ki (S1P3; [4]) | EC50 (S1P1 [2]) | Ki (S1P1 [1]; [5]) | Ki (S1P3; [6])
1 | Cc1ccccc1-c1ccc(-c2nc(-c3ccc(CCN[C@H](C)C(=O)O)cc3)no2)cc1C(F)(F)F [Example 93] | 1.22e-08 M | 4.67e-06 M | 28.6 nM | – | –
2 | Cc1ccccc1-c1ccc(-c2nc(-c3ccc(C(C)N(C)CC(=O)O)cc3)no2)cc1C(F)(F)F (stereo not shown) [Example 40, N-methyl-N-[1-(4-{5-[2′-methyl-2-(trifluoromethyl)biphenyl-4-yl]-1,2,4-oxadiazol-3-yl}phenyl)ethyl]glycine, hydrochloride salt] | 2.17e-09 M | 5.32e-07 M | 17.8 nM | – | –
3 | Cc1ccccc1-c1ccc(-c2nc(-c3ccc(CCN[C@@H](C)C(=O)O)cc3)no2)cc1C(F)(F)F [Example 92] | 6.94e-09 M | 1.24e-06 M | 29.5 nM | – | –
4 | COCc1cc(-c2nc(-c3ccc([C@H](C)N(C)CC(=O)O)cc3)no2)ccc1-c1ccccc1C [Example 98, N-[(1S)-1-(4-{5-[2-(methoxymethyl)-2′-methylbiphenyl-4-yl]-1,2,4-oxadiazol-3-yl}phenyl)ethyl]-N-methylglycine, hydrochloride salt] | – | – | – | 6.2e-10 M | ≥ 2e-05 M
5 | COCC(NCc1cccc(-c2noc(-c3ccc(-c4ccccc4C)c(C(F)(F)F)c3)n2)c1)C(=O)O (stereo not shown) [Example 76, 3-Methoxy-2-{3-[5-(2′-methyl-2-trifluoromethyl-biphenyl-4-yl)-[1,2,4]oxadiazol-3-yl]-benzylamino}-propionic acid] | 1.5e-08 M | – | 133 nM | – | –
6 | Cc1ccccc1-c1ccc(-c2nc(-c3ccc(CN(C)C(C(=O)O)C(C)O)cc3)no2)cc1C(F)(F)F (stereo not shown) [Example 74] | 8.53e-09 M | – | 106 nM | – | –
7 | COCc1cc(-c2nc(-c3ccc([C@@H](C)N(C)CC(=O)O)cc3)no2)ccc1-c1ccccc1C [Example 97, N-[(1R)-1-(4-{5-[2-(methoxymethyl)-2′-methylbiphenyl-4-yl]-1,2,4-oxadiazol-3-yl}phenyl)ethyl]-N-methylglycine, hydrochloride salt] | – | – | – | 7.8e-10 M | 4.8e-07 M
8 | CC[C@H](N[C@H](C)c1ccc(-c2noc(-c3ccc(-c4ccccc4C)c(C(F)(F)F)c3)n2)cc1)C(=O)O [Example 10, (2S)-2-{[(1R)-1-(4-{5-[2′-methyl-2-(trifluoromethyl)biphenyl-4-yl]-1,2,4-oxadiazol-3-yl}phenyl)ethyl]amino}butanoic acid, hydrochloride salt] | 1.94e-08 M | – | 187 nM | – | –
9 | Cc1ccccc1-c1ccc(-c2nc(-c3ccc([C@@H](C)N)cc3)no2)cc1C(F)(F)F [Example M1] | – | – | – | 4.05e-10 M | 1.45e-06 M
10 | CCN(Cc1cccc(-c2noc(-c3ccc(-c4ccccc4C)c(C(F)(F)F)c3)n2)c1)C(C)(C)C(=O)O [Example 88, 2-(Ethyl-{3-[5-(2′-methyl-2-trifluoromethyl-biphenyl-4-yl)-[1,2,4]oxadiazol-3-yl]-benzyl}-amino)-2-methyl-propionic acid] | 2.85e-09 M | – | 69.7 nM | – | –
11 | Cc1ccccc1-c1ccc(-c2nc(-c3cccc(CN(C)C(C)(CO)C(=O)O)c3)no2)cc1C(F)(F)F (stereo not shown) [Example 84] | 4.25e-09 M | – | 84.6 nM | – | –
12 | Cc1cc(-c2nc(-c3ccc([C@H](C)N(C)CC(=O)O)cc3)no2)ccc1-c1ccccc1C(F)(F)F [Example 33, N-methyl-N-[(1S)-1-(4-{5-[2-methyl-2′-(trifluoromethyl)biphenyl-4-yl]-1,2,4-oxadiazol-3-yl}phenyl)ethyl]glycine, hydrochloride salt] | 5.77e-09 M | – | 91 nM | – | –
13 | Cc1cc(-c2nc(-c3ccc([C@@H](C)N(C)CC(=O)O)cc3)no2)ccc1-c1ccccc1C(F)(F)F [Example 35, N-methyl-N-[(1R)-1-(4-{5-[2-methyl-2′-(trifluoromethyl)biphenyl-4-yl]-1,2,4-oxadiazol-3-yl}phenyl)ethyl]glycine, hydrochloride salt] | 6.14e-09 M | – | 211 nM | – | –
14 | Cc1ccccc1-c1ccc(-c2nc(-c3cccc(CNC(C(=O)O)C(C)O)c3)no2)cc1C(F)(F)F (stereo not shown) [Example 77] | 5.47e-09 M | – | 39.9 nM | – | –
15 | Cc1cc(-c2nc(-c3ccc([C@H](C)N[C@@H](C)C(=O)O)cc3)no2)ccc1-c1ccccc1C(F)(F)F (racemic) [Example 24, N-[(1S)-1-(4-{5-[2-methyl-2′-(trifluoromethyl)biphenyl-4-yl]-1,2,4-oxadiazol-3-yl}phenyl)ethyl]-L-alanine, hydrochloride salt and N-[(1R)-1-(4-{5-[2-methyl-2′-(trifluoromethyl)biphenyl-4-yl]-1,2,4-oxadiazol-3-yl}phenyl)ethyl]-D-alanine, hydrochloride salt] | 4.29e-09 M | – | 89.4 nM | – | –
16 | CNCc1cccc(-c2noc(-c3ccc(-c4ccccc4C)c(C(F)(F)F)c3)n2)c1 [Example M2] | – | – | – | 5.6e-10 M | 2.4e-08 M
17 | CCCC(NCc1ccc(-c2noc(-c3ccc(-c4ccccc4C)c(C(F)(F)F)c3)n2)cc1)C(=O)O (stereo not shown) [Example 62] | 3.81e-09 M | – | 73.3 nM | – | –
18 | Cc1ccccc1-c1ccc(-c2nc(-c3ccc([C@H](CO)N[C@H](C)C(=O)O)cc3)no2)cc1C(F)(F)F (single isomer, unassigned) [Example 100, hydrochloride salt] | – | – | – | 1.09e-09 M | 2.45e-06 M
19 | Cc1cc(-c2nc(-c3cccc(C(C)N(C)[C@@H](C)C(=O)O)c3)no2)ccc1-c1ccccc1C(F)(F)F (stereo partly shown) [Example 28, N-methyl-N-[1-(3-{5-[2-methyl-2′-(trifluoromethyl)biphenyl-4-yl]-1,2,4-oxadiazol-3-yl}phenyl)ethyl]alanine, hydrochloride salt] | 1.38e-08 M | – | 5170 nM | – | –
20 | COCC(c1ccc(-c2noc(-c3ccc(-c4ccccc4C)c(C(F)(F)F)c3)n2)cc1)N(C)CC(=O)O (stereo not shown) [Example 51, 2-((2-methoxy-1-(4-(5-(2′-methyl-2-(trifluoromethyl)biphenyl-4-yl)-1,2,4-oxadiazol-3-yl)phenyl)ethyl)(methyl)amino)acetic acid] | 7.52e-09 M | – | 29.8 nM | – | –
21 | Cc1ccccc1-c1ccc(-c2nc(-c3ccc([C@@H](CO)N[C@H](C)C(=O)O)cc3)no2)cc1C(F)(F)F (single isomer, unassigned) [Example 99, hydrochloride salt] | – | – | – | 8.85e-10 M | 2.3e-06 M
22 | Cc1ccccc1-c1ccc(-c2nc(-c3cccc(CN(C)C(C)(C)C(=O)O)c3)no2)cc1C(F)(F)F [Example 83, 2-Methyl-2-(methyl-{3-[5-(2′-methyl-2-trifluoromethyl-biphenyl-4-yl)-[1,2,4]oxadiazol-3-yl]-benzyl}-amino)-propionic acid] | 3.56e-09 M | – | 75.5 nM | – | –
23 | Cc1cc(-c2nc(-c3cccc(C(C)N(C)CC(=O)O)c3)no2)ccc1-c1ccccc1C(F)(F)F (stereo not shown) [Example 30, N-methyl-N-[1-(3-{5-[2-methyl-2′-(trifluoromethyl)biphenyl-4-yl]-1,2,4-oxadiazol-3-yl}phenyl)ethyl]glycine, hydrochloride salt] | 1.43e-08 M | – | 410 nM | – | –
